The source made the active and inactive calls. The calls are words filed in the database; no cut-off is given here.
Legend:
[1] = Cmax in fasted Swiss mouse at 100 mg/kg, po measured upto 48 hrs by LC-MS/MS analysis; format: ADME, organism-based; set-up: time < 48 hrs, dose 100 mg/kg, route po; conditions: in vivo
[2] = Toxicity in Swiss mouse infected with chloroquine-resistant Plasmodium yoelii N67 assessed as mean survival time at 100 mg/kg/day, po for 4 days (reference value: 7.2 +/- 1.3 day); format: organism-based; conditions: in vivo, 96 h, time 4 day
[3] = tested on: THP-1; test: Antiinflammatory activity against human THP-1 cells assessed as inhibition of LPS-induced TNFalpha level at 10 uM incubated for 12 to 14 hrs followed by compound replenishment for 1 hr and subsequent LPS treatment for 4 hrs by ELISA assay (reference value: 93.43 %); format: functional; set-up: scale not given: the % may be the effect or the level left; conditions: time 17-19 hrs
[4] = Stability in simulated intestinal fluid assessed as compound remaining at pH 6.8 measured upto 120 mins by LC-MS analysis; format: ADME; conditions: read-out: Stability
[5] = Stability in simulated gastric fluid assessed as compound remaining at pH 1.2 measured upto 120 mins by LC-MS analysis; format: ADME; conditions: read-out: Stability
[6] = MRT in fasted Swiss mouse at 100 mg/kg, po measured upto 48 hrs by LC-MS/MS analysis; format: ADME, organism-based; conditions: in vivo
[7] = tested on: Plasmodium yoelii; test: Antimalarial activity against chloroquine-resistant Plasmodium yoelii N67 infected in Swiss mouse assessed as parasite growth suppression at 100 mg/kg/day, po for 4 days measured on day 7 relative to control; format: functional; conditions: time 7 day
[8] = tested on: THP-1; test: Cytotoxicity against LPS-stimulated human THP-1 cells assessed as cell viability at 10 uM incubated for 12 hrs followed by LPS treatment measured after 4 hrs by PI staining based flow cytometry; format: functional; conditions: time 16.0 hrs
[9] = Stability in mouse plasma assessed as compound remaining at 10 uM measured upto 120 mins by LC-MS analysis; format: ADME, cell-free; conditions: read-out: Stability
[10] = Stability in simulated physiological fluid assessed as compound remaining at pH 7.4 measured upto 120 mins by LC-MS analysis; format: physicochemical; conditions: read-out: Stability
[11] = tested on: Plasmodium falciparum; test: Antimalarial activity against asynchronous chloroquine-resistant Plasmodium falciparum K1 assessed as parasite growth inhibition infected in erythrocytes incubated for 72 hrs by SYBR green dye based assay; format: functional, organism-based; conditions: K1, 72 h
[12] = tested on: HEK-293T; test: Antiinflammatory activity against HEK293T cells assessed as fold increase in TNFalpha-induced NF-kappaB activity at 10 uM incubated for 1 hr followed by TNFalpha treatment for 5 hrs by luciferase based assay (reference value: 17.1); format: functional, Homo sapiens
[13] = AUC in fasted Swiss mouse at 100 mg/kg, po measured upto 48 hrs by LC-MS/MS analysis; format: ADME, organism-based; set-up: dose 100 mg/kg, time < 48 hrs, route po; conditions: in vivo
[14] = Clearance in fasted Swiss mouse at 100 mg/kg, po measured upto 48 hrs by LC-MS/MS analysis; format: ADME, organism-based; conditions: in vivo
[15] = Volume of distribution in fasted Swiss mouse at 100 mg/kg, po measured upto 48 hrs by LC-MS/MS analysis; format: ADME, organism-based; conditions: in vivo
[16] = tested on: Plasmodium falciparum; test: Antimalarial activity against asynchronous chloroquine-sensitive Plasmodium falciparum 3D7 assessed as parasite growth inhibition infected in erythrocytes incubated for 72 hrs by SYBR green dye based assay; format: functional, organism-based; conditions: 3D7, 72 h
[17] = Tmax in fasted Swiss mouse at 100 mg/kg, po measured upto 48 hrs by LC-MS/MS analysis; format: ADME, organism-based; conditions: in vivo
[18] = Cytotoxicity against African green monkey Vero cells incubated for 3 days by fluorescence based assay; format: toxicity, cell-based; conditions: chlorocebus sabaeus, time 3 day
[19] = tested on: Plasmodium yoelii; test: Antimalarial activity against chloroquine-resistant Plasmodium yoelii N67 infected in Swiss mouse assessed as parasite growth suppression at 100 mg/kg/day, po for 4 days measured on day 4 relative to control; format: functional; conditions: time 4 day
[20] = Half life in fasted Swiss mouse at 100 mg/kg, po measured upto 48 hrs by LC-MS/MS analysis; format: ADME, organism-based; conditions: in vivo

## Cc1c(C(=O)Nc2ccccc2)c(-c2ccccc2)c(-c2ccc(C(C)C)cc2)n1CC1=CC(=O)OC1O (stereo not given)
[1]
  Cmax: 415 ng/mL
[2]
  MST: 23.4 days
[3]
  Activity: 91.44%
[4]
  remaining at 2 h: 86.2%
[5]
  remaining at 2 h: 85.4%
[6]
  MRT: 5.34 h
[7]
  Activity: 100%
[8]
  Activity: Active
[9]
  remaining at 2 h, 10 µM: 85.8%
[10]
  remaining at 2 h: 94.8%
[11]
  IC50: 1.67 µM
[12]
  fold change (FC): 9.4
[13]
  AUC at 48 h: 1730 ng·h/mL
[14]
  CL/F: 966 mL/min/kg
[15]
  Vd: 270.36 L/kg
[16]
  IC50: 0.96 µM
[17]
  Tmax: 0.25 h
[18]
  CC50 at 72 h: 126 µM
[19]
  Activity: 77.79%
[20]
  half-life: 3.23 h
